The text below walks through data of patent publication US9006450B2 (Boehringer Ingelheim International GmbH, priority 2010, dated 2015).

Structures are written as SMILES.

T1 sequence (O00763 129-2458 limits assumed): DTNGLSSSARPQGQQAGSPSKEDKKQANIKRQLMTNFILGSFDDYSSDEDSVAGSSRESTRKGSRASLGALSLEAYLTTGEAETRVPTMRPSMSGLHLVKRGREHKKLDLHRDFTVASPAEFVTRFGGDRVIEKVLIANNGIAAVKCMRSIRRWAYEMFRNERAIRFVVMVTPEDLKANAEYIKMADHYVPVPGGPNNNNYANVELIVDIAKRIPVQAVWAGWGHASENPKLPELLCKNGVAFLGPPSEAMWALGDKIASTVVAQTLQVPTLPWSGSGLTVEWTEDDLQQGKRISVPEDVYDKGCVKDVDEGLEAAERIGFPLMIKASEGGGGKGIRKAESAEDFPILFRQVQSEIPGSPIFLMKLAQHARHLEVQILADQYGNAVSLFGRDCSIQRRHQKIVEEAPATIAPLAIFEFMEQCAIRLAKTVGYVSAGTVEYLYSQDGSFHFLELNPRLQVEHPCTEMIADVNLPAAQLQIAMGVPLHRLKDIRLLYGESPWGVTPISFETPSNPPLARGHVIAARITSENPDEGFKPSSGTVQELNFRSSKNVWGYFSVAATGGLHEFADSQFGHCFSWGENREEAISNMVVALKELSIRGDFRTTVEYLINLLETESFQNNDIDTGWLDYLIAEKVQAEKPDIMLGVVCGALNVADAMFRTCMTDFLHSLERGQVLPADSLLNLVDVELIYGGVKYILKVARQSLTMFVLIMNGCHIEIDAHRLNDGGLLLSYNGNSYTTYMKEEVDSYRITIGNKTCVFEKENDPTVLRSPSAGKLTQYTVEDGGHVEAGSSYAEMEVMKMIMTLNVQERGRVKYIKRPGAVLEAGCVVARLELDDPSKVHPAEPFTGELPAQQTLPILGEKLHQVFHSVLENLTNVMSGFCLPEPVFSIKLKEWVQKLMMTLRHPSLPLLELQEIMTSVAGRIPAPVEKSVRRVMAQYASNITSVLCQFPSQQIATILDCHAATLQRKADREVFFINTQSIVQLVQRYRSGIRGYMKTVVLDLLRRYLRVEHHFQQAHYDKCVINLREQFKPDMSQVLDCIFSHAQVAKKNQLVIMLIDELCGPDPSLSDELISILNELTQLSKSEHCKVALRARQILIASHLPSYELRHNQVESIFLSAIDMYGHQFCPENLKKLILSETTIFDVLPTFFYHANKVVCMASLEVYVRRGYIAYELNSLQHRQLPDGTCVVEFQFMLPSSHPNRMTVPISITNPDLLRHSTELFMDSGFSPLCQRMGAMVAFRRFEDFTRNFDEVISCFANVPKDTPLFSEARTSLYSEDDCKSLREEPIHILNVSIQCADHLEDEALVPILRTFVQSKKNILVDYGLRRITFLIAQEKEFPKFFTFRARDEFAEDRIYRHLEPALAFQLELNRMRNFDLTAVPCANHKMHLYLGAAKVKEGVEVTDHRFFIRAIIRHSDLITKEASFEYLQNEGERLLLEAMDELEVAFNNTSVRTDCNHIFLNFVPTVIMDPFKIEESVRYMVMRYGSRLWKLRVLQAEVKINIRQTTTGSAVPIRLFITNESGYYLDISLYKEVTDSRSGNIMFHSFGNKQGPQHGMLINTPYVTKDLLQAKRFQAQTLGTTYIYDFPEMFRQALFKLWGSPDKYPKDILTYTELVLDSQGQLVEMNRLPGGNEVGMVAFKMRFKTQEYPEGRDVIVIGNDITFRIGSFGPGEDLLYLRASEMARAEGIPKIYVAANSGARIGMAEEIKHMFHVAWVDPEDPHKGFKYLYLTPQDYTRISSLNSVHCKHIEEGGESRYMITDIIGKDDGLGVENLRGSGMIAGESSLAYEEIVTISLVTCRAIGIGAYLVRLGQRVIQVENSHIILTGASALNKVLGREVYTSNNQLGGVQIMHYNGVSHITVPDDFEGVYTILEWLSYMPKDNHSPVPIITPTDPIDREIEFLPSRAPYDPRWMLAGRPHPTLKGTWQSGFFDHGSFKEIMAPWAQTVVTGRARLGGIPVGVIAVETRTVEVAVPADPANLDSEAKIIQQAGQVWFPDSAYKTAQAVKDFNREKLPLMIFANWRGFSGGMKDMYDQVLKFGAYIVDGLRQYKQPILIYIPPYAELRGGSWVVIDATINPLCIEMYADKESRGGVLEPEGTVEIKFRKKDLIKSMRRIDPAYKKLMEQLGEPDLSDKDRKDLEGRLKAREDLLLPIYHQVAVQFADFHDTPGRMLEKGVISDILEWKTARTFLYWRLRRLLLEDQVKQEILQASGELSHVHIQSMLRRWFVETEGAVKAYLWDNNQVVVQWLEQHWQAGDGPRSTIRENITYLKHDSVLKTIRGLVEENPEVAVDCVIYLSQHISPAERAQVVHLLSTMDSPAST

The assay concerns the target T1, human ACC2 (Homo sapiens, UniProt O00763).
T1 construct: made in house; host or cells: insect cells (baculoviral expression system)
Kind of assay: ACC2 assay, spectrophotometric 384 well assay (NADH-linked, coupled lactate dehydrogenase/pyruvate kinase). The assay is classed as biochemical. The following applies: ACC2 assay, hACC2 construct lacking 128 N-terminal amino acids, 25° C., 340 nm; read-out: IC50. As to the method:
Spectrophotometric 384 Well Assay
Malonyl CoA formation by acetyl CoA carboxylases is stoichometrically linked to the consumption of ATP. ACC2 activity is measured in a NADH-linked kinetic method measuring ADP generated during the ACC reaction using a coupled lactate dehydrogenase/pyruvate kinase reaction.
For biological testing, a human ACC2 construct which lacks the 128 amino acids at the N-terminus for increased solubility (nt 385-6966 in Genbank entry AJ575592) is cloned. The protein is then expressed in insect cells using a baculoviral expression system. Protein purification is performed by anion exchange.
All compounds are dissolved in dimethyl sulfoxide (DMSO) to a concentration of 10 mM.
Assay reactions are then carried out in 384-well plates, with hACC2 in an appropriate dilution and at final assay concentrations (f.c.) of 100 mM Tris (pH 7.5), 10 mM trisodium citrate, 25 mM KHCO3, 10 mM MgCl2, 0.5 mg/mL BSA, 3.75 mM reduced L-glutathione, 15 U/mL lactate dehydrogenase, 0.5 mM phosphoenolpyruvate, 15 U/mL pyruvate kinase, compounds at different concentrations at final DMSO concentrations of 1%.
The enzymatic reaction is then started by addition of a mixture of NADH, acetyl Coenzyme A (both 200 μM f.c.) and ATP (500 uM f.c.). The decrease of the optical density (slope S) is then determined at 25° C. at a wavelength of 340 nm over 15 minutes in a spectrophotometric reader.
Each assay microtiter plate contains wells with vehicle instead of compound as controls for the non-inhibited enzyme (100% CTL; ‘HIGH’) and wells without acetyl-CoA as controls for non-specific NADH degradation (0% CTL; ‘LOW’).
The slope S is used for calculation of % CTL=(S(compound)−S('LOW'))/(S('HIGH')−S('LOW'))*100. Compounds will give values between 100% CTL (no inhibition) and 0% CTL (complete inhibition).
For IC50 value determination, the sample slope in the presence of the test compound after subtraction of the low controls (S(compound)−S('LOW')) are used.
An IC50 value is derived from the compound slopes at different dosages after subtraction of the low controls (S(compound)−S('LOW')) by non-linear regression curve fitting (equation y=(A+((B−A)/(1+((C/x)^D))))).
A word on the IC50: it is the concentration at which inhibition is half-maximal. Consider `CC(=O)N[C@@H](C)c1ccc(C2CCN(c3ccc(OC4CCC4)cc3C#N)CC2)cc1` [Example 1.51], for which the concentration for half-maximal inhibition (IC50) was found to be 90 nM. With `CC(=O)N[C@@H](C)c1ccc(C2CCN(c3ncc(-c4ccc(C#N)cc4C)cn3)CC2)cc1` [Example 10.61], the concentration for half-maximal inhibition (IC50) is 530 nM. With `C[C@H](NC(=O)C1CC1)c1ccc(C2CCN(c3ccc(OCC4CCC4)cc3)CC2)cc1` [Example 1.141], the IC50 worked out at 320 nM. Regarding `CC(=O)N[C@@H](C)c1ccc(C2CCN(c3ncc(C(=O)N4CCN(C)CC4)cn3)CC2)cc1` [Example 18.52], the IC50 was determined as 13600 nM.

Regarding `CC(=O)N[C@@H](C)c1ccc(C2CCN(c3cc(NCc4ccccc4)ncn3)CC2)cc1` [Example 11.55], the IC50 amounted to 3700 nM. Take `COC(=O)c1cnc(N2CCC(c3ccc([C@H](C)NC(C)=O)cc3)CC2)s1` [Example 4.101]: the concentration for half-maximal inhibition (IC50) amounted to 2700 nM. In the case of `COc1ccc(N2CCC(c3ccc([C@H](C)NC(C)=O)cc3)CC2)cn1` [Example 1.53], the half-maximal inhibitory concentration (IC50) came to 820 nM. Take `CC(=O)N[C@@H](C)c1ccc(C2CCN(c3ccc(OC(C)C)nc3)CC2)cc1` [Example 1.60]: the IC50 was 180 nM. As for `CCOc1ccc(N2CCC(c3ccc([C@H](C)NC(=O)c4cc[nH]n4)cc3)CC2)cc1` [Example 6.29], the IC50 stood at 3600 nM. `CC(=O)N[C@@H](C)c1ccc(C2CCN(c3ncc(C(=O)NCC4CC4)cn3)CC2)cc1` [Example 18.77]: the half-maximal inhibitory concentration (IC50) was 1700 nM. On to `CC(=O)N[C@@H](C)c1ccc(C2CCN(c3ncc(-c4ccccc4)c(C)n3)CC2)cc1` [Example 21.2, (S)—N-(1-{4-[1-(4-Methyl-5-phenyl-pyrimidin-2-yl)-piperidin-4-yl]-phenyl}-ethyl)-acetamide], for which the IC50 is 150 nM. Turning to `CC(=O)N[C@@H](C)c1ccc(C2CCN(c3cc(OCCC4CC4)ncn3)CC2)cc1` [Example 11.3], the IC50 worked out at 250 nM. As for `CC(C)Oc1ncnc(N2CCC(c3ccc([C@H](C)NC(=O)C4CC4)cc3)CC2)c1F` [Example 11.130], the IC50 was 370 nM.

Consider `CC(=O)N[C@@H](C)c1ccc(C2CCN(c3cccc(OC(C)c4ccccc4)c3)CC2)cc1` (some centres unmarked) [Example 9.18], for which the IC50 is 150 nM.

With `CC(=O)N[C@@H](C)c1ccc(C2CCN(c3ncc(C(=O)Nc4ccc5c(c4)OCO5)cn3)CC2)cc1` [Example 18.18], the half-inhibitory concentration (IC50) was found to be 1100 nM. Turning to `CCOc1ccc(N2CCC(c3ccc([C@H](C)NC(=O)Nc4nccs4)cc3)CC2)cc1` [Example 14.57], the half-inhibitory concentration (IC50) is 14200 nM. `CCOc1ccc(N2CCC(c3ccc([C@H](C)NC(=O)OC)cc3)CC2)c(OCC)c1` [Example 1.137]: the IC50 was 16000 nM. Turning to `CC(=O)N[C@@H](C)c1ccc(C2CCN(c3ncc(C(=O)N(C)C4CCN(C)C4)cn3)CC2)cc1` (some centres unmarked) [Example 18.84], the half-maximal inhibitory concentration (IC50) was found to be 18100 nM. For the compound `C[C@H](NC(=O)N(C)C)c1ccc(C2CCN(c3ncc(-c4ccc(C#N)cc4)cn3)CC2)cc1` [Example 10.109], the IC50 was 90 nM.

Turning to `CC(=O)N[C@@H](C)c1ccc(C2CCN(c3ncc(-c4cscc4C)cn3)CC2)cc1` [Example 10.56], the concentration for half-maximal inhibition (IC50) turned out to be 320 nM. Regarding `CC(=O)N[C@@H](C)c1ccc(C2CCN(c3ncc(-c4ccc(O)c(Cl)c4)cn3)CC2)cc1` [Example 10.78], the concentration for half-maximal inhibition (IC50) stood at 200 nM.

Regarding `COCC(C)Oc1cc(N2CCC(c3ccc([C@H](C)NC(C)=O)cc3)CC2)ccn1` (some centres unmarked) [Example 19.14], the IC50 was 400 nM. `CCC(C)Oc1ccc(N2CCC(c3ccc([C@H](C)NC(=O)N(C)C)cc3)CC2)cc1` (some centres unmarked) [Example 1.7]: the IC50 amounted to 140 nM. `COC(=O)N[C@@H](C)c1ccc(C2CCN(c3ncc4nc(-c5ccccc5)oc4n3)CC2)cc1` [Example 4.48]: the concentration for half-maximal inhibition (IC50) worked out at 130 nM. Take `CC(=O)N[C@@H](C)c1ccc(C2CCN(c3noc(C(C)C)n3)CC2)cc1` [Example 26.3]: the IC50 stood at 710 nM.

On to `CCOc1ccc(N2CCC(c3ccc([C@H](C)NC(=O)NC)cc3)CC2)cc1` [Example 14.1, (S)-1-(1-{4-[1-(4-Ethoxy-phenyl)-piperidin-4-yl]-phenyl}-ethyl)-3-methyl-urea], for which the concentration for half-maximal inhibition (IC50) came out at 470 nM.
